# Patent publication US9695155B2, “Herbicidal substituted pyrimidinyloxy benzene compounds” (E. I. DU PONT DE NEMOURS AND COMPANY, priority 2013, dated 2017)
# Columns and labels:
# Test in all cases: Test C preemergence
# [1] = system: pigweed; assay type: in vivo, Amaranthus retroflexus; conditions: for Pigweed plant response rating: preemergence
# Method in brief: (§1)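 Plants were kept under greenhouse conditions for 13–15 days following spray. Pre-emergent application went to soil (loam–sand), post-emergent to foliage at 1–4 leaves. Evaluation: visual, percent control against untreated checks.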
# [2] = system: waterhemp; assay type: in vivo, Amaranthus rudis; conditions: for Waterhemp plant response rating: preemergence
# Method in brief: as §1
# [3] = system: large (Lg) crabgrass; assay type: in vivo, Digitaria sanguinalis; conditions: for Crabgrass, Large plant response rating: preemergence; for Plant response rating, Crabgrass, Large: Preemergence, 31 g ai/ha, scale 0 to 100, 0 no effect, 100 complete control
# Method in brief: as §1
# [4] = system: barnyardgrass; assay type: in vivo, Echinochloa crus-galli; conditions: for Barnyardgrass plant response rating: preemergence; for Plant response rating, Barnyardgrass: Preemergence, 31 g ai/ha, scale 0 to 100, 0 no effect, 100 complete control
# From the text: (§2) Seeds of plant species selected from blackgrass (Alopecurus myosuroides), Italian ryegrass (Lolium multiflorum), wheat, winter (winter wheat, Triticum aestivum), galium (catchweed bedstraw, Galium aparine), corn (Zea mays), large (Lg) crabgrass (Digitaria sanguinalis), giant foxtail (Setaria faberii), johnsongrass (Sorghum halepense), lambsquarters (Chenopodium album), morningglory (Ipomoea coccinea), yellow nutsedge (Cyperus esculentus), pigweed (Amaranthus retroflexus), ragweed (common ragweed, Ambrosia elatior), soybean (Glycine max), barnyardgrass (Echinochloa crus-galli), oilseed rape (Brassica napus), waterhemp (common waterhemp, Amaranthus rudis), kochia (Kochia scoparia), wild oat (Avena fatua), surinam grass (Brachiaria decumbens), foxtail, green (green foxtail, Setaria viridis), goosegrass (Eleusine indica), bromegrass, downy (downy bromegrass, Bromus tectorum), nightshade (eastern black nightshade, Solanum ptycanthum), cocklebur (common cocklebur, Xanthium strumarium), cupgrass, woolly (woolly cupgrass, Eriochloa villosa), bermudagrass (Cynodon dactylon), sunflower, (common oilseed sunflower, Helianthus annuus), Russian thistle (Salsola kali), and velvetleaf (Abutilon theophrasti) were planted into a blend of loam soil and sand and treated preemergence with test chemicals formulated in a non-phytotoxic solvent mixture which included a surfactant.
# (§3) At the same time, plants selected from these crop and weed species and also barley, winter (winter barley, Hordeum vulgare), windgrass (Apera spica-venti), chickweed (common chickweed, Stellaria media), deadnettle (henbit deadnettle, Lamium amplexicaule), and canarygrass (littleseed canarygrass, Phalaris minor) were planted in pots containing Redi-Earth® planting medium (Scotts Company, 14111 Scottslawn Road, Marysville, Ohio 43041) comprising spaghnum peat moss, vermiculite, wetting agent and starter nutrients and treated with postemergence applications of test chemicals formulated in the same manner. Plants ranged in height from 2 to 18 cm (1- to 4-leaf stage) for postemergence treatments. Treated plants and controls were maintained in a greenhouse for 13 to 15 days, after which time all species were compared to controls and visually evaluated. Plant response ratings, summarized in Table C, are based on a scale of 0 to 100 where 0 is no effect and 100 is complete control. A dash (-) response means no test result.
# [5] = system: giant foxtail; assay type: in vivo, Setaria faberii; conditions: for Foxtail, Giant plant response rating: preemergence; for Plant response rating, Foxtail, Giant: Preemergence, 31 g ai/ha, scale 0 to 100, 0 no effect, 100 complete control
# Method in brief: as §1
# [6] = system: yellow nutsedge; assay type: in vivo, Cyperus esculentus; conditions: for Nutsedge, Yellow plant response rating: preemergence
# Method in brief: as §1
# [7] = system: johnsongrass; assay type: in vivo, Sorghum halepense; conditions: for Johnsongrass plant response rating: preemergence
# Method in brief: as §1
# [8] = system: blackgrass; assay type: in vivo, Alopecurus myosuroides; conditions: for Blackgrass plant response rating: preemergence; for Plant response rating, Blackgrass: Preemergence, 31 g ai/ha, scale 0 to 100, 0 no effect, 100 complete control
# Method in brief: as §1
# [9] = system: oilseed rape; assay type: in vivo, Brassica napus; conditions: for Oilseed Rape plant response rating: preemergence
# Method in brief: as §1
# [10] = system: corn; assay type: in vivo, Zea mays; conditions: for Corn plant response rating: preemergence; for Plant response rating, Corn: Preemergence, 31 g ai/ha, scale 0 to 100, 0 no effect, 100 complete control
# From the text: as §2, §3
# [11] = system: lambsquarters; assay type: in vivo, Chenopodium album; conditions: for Lambsquarters plant response rating: preemergence
# From the text: as §2, §3
# [12] = system: ragweed; assay type: in vivo, Ambrosia elatior; conditions: for Ragweed plant response rating: preemergence
# From the text: as §2, §3
# [13] = system: galium; assay type: in vivo, Galium aparine; conditions: for Galium plant response rating: preemergence; for Plant response rating, Galium: Preemergence, 31 g ai/ha, scale 0 to 100, 0 no effect, 100 complete control
# Method in brief: as §1
# [14] = 16 g ai/ha, scale 0 to 100 (0 no effect, 100 complete control)
# [15] = 62 g ai/ha, scale 0 (no effect) to 100 (complete control)
# [16] = 125 g ai/ha, scale 0 (no effect) to 100 (complete control)
# [17] = Preemergence, 31 g ai/ha, scale 0 to 100, 0 no effect, 100 complete control
smiles,measurement,setting,value
FC(F)c1cccc(Oc2ncc(Cl)cn2)c1-n1cc(C(F)(F)F)cn1 [Compound 170],Pigweed plant response rating,[1]; [14],100
same,Pigweed plant response rating,[1]; [15],100
same,Pigweed plant response rating,[1]; [16],100
same,Waterhemp plant response rating,[2]; [14],100
same,Waterhemp plant response rating,[2]; [15],100
same,Waterhemp plant response rating,[2]; [16],100
same,"Crabgrass, Large plant response rating",[3]; [14],25
same,"Crabgrass, Large plant response rating",[3]; [15],100
same,"Crabgrass, Large plant response rating",[3]; [16],100
same,"Plant response rating, Crabgrass, Large",[3],95
same,Barnyardgrass plant response rating,[4]; [14],10
same,Barnyardgrass plant response rating,[4]; [15],100
same,Barnyardgrass plant response rating,[4]; [16],100
same,"Plant response rating, Barnyardgrass",[4],55
same,"Foxtail, Giant plant response rating",[5]; [14],80
same,"Foxtail, Giant plant response rating",[5]; [15],98
same,"Foxtail, Giant plant response rating",[5]; [16],100
same,"Plant response rating, Foxtail, Giant",[5],85
same,"Nutsedge, Yellow plant response rating",[6]; [14],0
same,"Nutsedge, Yellow plant response rating",[6]; [15],15
same,"Nutsedge, Yellow plant response rating",[6]; [16],55
same,Johnsongrass plant response rating,[7]; [14],0
same,Johnsongrass plant response rating,[7]; [15],70
same,Johnsongrass plant response rating,[7]; [16],85
same,Blackgrass plant response rating,[8]; [14],0
same,Blackgrass plant response rating,[8]; [15],90
same,Blackgrass plant response rating,[8]; [16],90
same,"Plant response rating, Blackgrass",[8],80
same,Oilseed Rape plant response rating,[9]; [14],70
same,Oilseed Rape plant response rating,[9]; [15],98
same,Oilseed Rape plant response rating,[9]; [16],95
same,Corn plant response rating,[10]; [14],0
same,Corn plant response rating,[10]; [15],15
same,Corn plant response rating,[10]; [16],40
same,"Plant response rating, Corn",[10],5
same,Lambsquarters plant response rating,[11]; [14],90
same,Lambsquarters plant response rating,[11]; [15],100
same,Lambsquarters plant response rating,[11]; [16],100
same,Ragweed plant response rating,[12]; [14],85
same,Ragweed plant response rating,[12]; [15],55
same,Ragweed plant response rating,[12]; [16],65
same,Galium plant response rating,[13]; [14],95
same,Galium plant response rating,[13]; [15],100
same,Galium plant response rating,[13]; [16],100
same,"Plant response rating, Galium",[13],98
Fc1cnc(Oc2cccc(C(F)F)c2-n2cc(Cl)cn2)nc1 [Compound 94],Pigweed plant response rating,[1]; [14],90
same,Pigweed plant response rating,[1]; [15],100
same,Pigweed plant response rating,[1]; [16],100
same,"Plant response rating, Pigweed",[1]; [17],100
same,Waterhemp plant response rating,[2]; [14],80
same,Waterhemp plant response rating,[2]; [15],100
same,Waterhemp plant response rating,[2]; [16],100
same,"Plant response rating, Waterhemp",[2]; [17],100
same,"Crabgrass, Large plant response rating",[3]; [14],25
same,"Crabgrass, Large plant response rating",[3]; [15],100
same,"Crabgrass, Large plant response rating",[3]; [16],100
same,"Plant response rating, Crabgrass, Large",[3],98
same,Barnyardgrass plant response rating,[4]; [14],5
same,Barnyardgrass plant response rating,[4]; [15],85
same,Barnyardgrass plant response rating,[4]; [16],100
same,"Plant response rating, Barnyardgrass",[4],10
same,"Foxtail, Giant plant response rating",[5]; [14],5
same,"Foxtail, Giant plant response rating",[5]; [15],100
same,"Foxtail, Giant plant response rating",[5]; [16],100
same,"Plant response rating, Foxtail, Giant",[5],65
same,"Nutsedge, Yellow plant response rating",[6]; [14],0
same,"Nutsedge, Yellow plant response rating",[6]; [15],55
same,"Nutsedge, Yellow plant response rating",[6]; [16],65
same,"Plant response rating, Nutsedge, Yellow",[6]; [17],0
same,Johnsongrass plant response rating,[7]; [14],0
same,Johnsongrass plant response rating,[7]; [15],35
same,Johnsongrass plant response rating,[7]; [16],70
same,"Plant response rating, Johnsongrass",[7]; [17],25
same,Blackgrass plant response rating,[8]; [14],5
same,Blackgrass plant response rating,[8]; [15],90
same,Blackgrass plant response rating,[8]; [16],90
same,"Plant response rating, Blackgrass",[8],20
same,Oilseed Rape plant response rating,[9]; [14],85
same,Oilseed Rape plant response rating,[9]; [15],98
same,Oilseed Rape plant response rating,[9]; [16],98
same,"Plant response rating, Oilseed Rape",[9]; [17],98
same,Corn plant response rating,[10]; [14],5
same,Corn plant response rating,[10]; [15],5
same,Corn plant response rating,[10]; [16],55
same,"Plant response rating, Corn",[10],5
same,Lambsquarters plant response rating,[11]; [14],40
same,Lambsquarters plant response rating,[11]; [15],100
same,Lambsquarters plant response rating,[11]; [16],100
same,"Plant response rating, Lambsquarters",[11]; [17],85
same,Ragweed plant response rating,[12]; [14],0
same,Ragweed plant response rating,[12]; [15],10
same,Ragweed plant response rating,[12]; [16],25
same,"Plant response rating, Ragweed",[12]; [17],0
same,Galium plant response rating,[13]; [14],80
same,Galium plant response rating,[13]; [15],98
same,Galium plant response rating,[13]; [16],100
same,"Plant response rating, Galium",[13],98
